Data: patent US20180256495A1 (MEDRx Co., Ltd., priority 2008, published 2018)
Read-outs that look alike come from different tables or passages of the source.

What was measured:
[1] = cited from earlier work; for logP (Log P of organic acid, Calculated) / logP of organic acid (calc.) / Log P of organic acid (calc.): organic acid itself; for logP (calc.): basic drug itself, value published in PubMed; for log P: lipid solubility of the named drug or organic acid itself
[2] = State of the liquid preparation (precipitation, homogeneity, solubility or dispersion of the salt)
[3] = Evaluation test of transdermal absorbability (skin penetrability) with a Franz diffusion cell; assay type: in vitro ADME; settings: free basic drug, liquid preparation 2 w/w %, rat skin, 32° C.
[4] = stated in brackets in the synthesis examples; cited from earlier work
[5] = wrapped cell, full remark: tendency of salt to be divided into two layers

In the case of `CCCCC(CC)C(=O)O` (stereo not drawn) [2-ethylhexanoic acid], the “logP (Log P of organic acid, Calculated)” value ([1]; value from PubMed) is given as 2.7.
For `CC(O)CC(=O)O` (stereo not drawn) [3-hydroxybutyric acid], the “logP (Log P of organic acid, Calculated)” value ([1]; value from PubMed) is given as −0.5.
For `CC(O)C(=O)O.CCN(CC)CC(=O)Nc1c(C)cccc1C` [Lactic acid salt of lidocaine, lactic acid salt of lidocaine], the “Remarks, Test Example 7: 2% liquid preparation (solvent system)” value ([2]; wrapped cell, full remark: homogeneously dispersed solution) was “homogeneously”, the “Remarks, Example 13: 20% viscous liquid preparation (liquid paraffin)” value [2, 5] was “tendency of salt to” and the “Remarks, Example 14: 20% viscous liquid preparation (solvent + liquid paraffin)” value [2, 5] was “tendency of salt to”.
In the case of `CC(=O)NCC(=O)O` [N-acetylglycine], the “logP of organic acid (calc.)” value [1] is given as −3.1 and the “Log P of organic acid (calc.)” value ([1]; value from PubMed) is given as −3.1.
In the case of `CC(=O)Oc1ccccc1C(=O)O` [acetylsalicylic acid], the “logP (Log P of organic acid, Calculated)” value ([1]; value from PubMed) is listed as 1.4.
In the case of `CN(C)CCC=C1c2ccccc2CCc2ccccc21` [amitriptyline, reference compound], the “Penetrated Amount (amount of skin-penetrated drug during 3 hours)” value (from here on “Penetrated Amount”) [3] is given as 7 μg/cm^2, the “logP (calc.)” value [1] is given as 4.9 and the “log P” value [1] is given as 4.9.
For `CCc1ccc(C(=O)C(C)CN2CCCCC2)cc1` (stereo not drawn) [eperisone, reference compound], the “Penetrated Amount” value [3] is given as 14 μg/cm^2 and the “logP (calc.)” value [1] is given as 3.6.
With `CN(C)CCCN1c2ccccc2CCc2ccccc21` [imipramine] the “Penetrated Amount” value [3] was 10 μg/cm^2.
In the case of `CC(C)CCCCCCCCCCCCCCC(=O)O` [isostearic acid], the “logP of organic acid (calc.)” value [1] is given as 7, the “Log P of organic acid (calc.)” value ([1]; value from PubMed) is given as 7 and the “logP (Log P of organic acid, Calculated)” value ([1]; value from PubMed) is given as 7. The “logP of organic acid (calc.)” value ([1]; value from PubMed) was 7.
In the case of `CC(=O)CCC(=O)O` [levulinic acid], the “logP of organic acid (calc.)” value [1] is given as −0.4, the “Log P of organic acid (calc.)” value ([1]; value from PubMed) is given as −0.4 and the “logP (Log P of organic acid, Calculated)” value ([1]; value from PubMed) is given as −0.4. For the same compound, the “logP of organic acid (calc.)” value ([1]; value from PubMed) was −0.4.
In the case of `COCC(=O)O` [methoxyacetic acid], the “Remarks (state of the liquid preparation)” value ([2]; morphine 2 w/w % liquid preparation with the row's acid, wrapped cell 'small amount of' + 'precipitation' = small amount of white precipitation remained) is given as “homogeneous solution”, the “logP of organic acid (calc.)” value [1] is given as −0.6 and the “Log P of organic acid (calc.)” value ([1]; value from PubMed) is given as −0.6. The “logP (Log P of organic acid, Calculated)” value ([1]; value from PubMed) was −0.6 and the “logP of organic acid (calc.)” value ([1]; value from PubMed) was −0.6.
In the case of `CCCCCCCC(=O)O` [octanoic acid], the “logP of organic acid (calc.)” value [1] is given as 3, the “Log P of organic acid (calc.)” value ([1]; value from PubMed) is given as 3 and the “logP of organic acid (calc.)” value ([1]; value from PubMed) is given as 3.
For `O=C(O)c1ccc(O)cc1` [p-hydroxybenzoic acid], the “logP (Log P of organic acid, Calculated)” value ([1]; value from PubMed) is listed as 1.2.
In the case of `CC(C)=CCN1CCC2(C)c3cc(O)ccc3CC1C2C` (stereo not drawn) [pentazocine, reference compound], the “Penetrated Amount” value [3] is given as 40 μg/cm^2, the pKa [4] is given as 8.0 and the “logP (calc.)” value [1] is given as 3.7. The “log P” value [1] was 3.7.
For `CCC(=O)O` [propionic acid], the “Log P of organic acid (calc.)” value ([1]; value from PubMed) is given as 0.2 and the “logP of organic acid (calc.)” value ([1]; value from PubMed) is given as 0.2.
For `O=C(O)c1ccccc1O` [salicylic acid], the “Log P of organic acid (calc.)” value ([1]; value from PubMed) is given as 2.4, the “logP (Log P of organic acid, Calculated)” value ([1]; value from PubMed) is given as 2.4 and the “logP of organic acid (calc.)” value ([1]; value from PubMed) is given as 2.4.
For `Cc1ccc(C(=O)C(C)CN2CCCCC2)cc1` (stereo not drawn) [tolperisone, reference compound], the “Penetrated Amount” value [3] is listed as 26 μg/cm^2 and the “logP (calc.)” value [1] is listed as 3.1.
In the case of `COc1cccc(C2(O)CCCCC2CN(C)C)c1` (stereo not drawn) [tramadol, reference compound], the “Penetrated Amount” value [3] is listed as 122 μg/cm^2, the “logP (calc.)” value [1] is listed as 2.4 and the “log P” value [1] is listed as 2.4.
